Data from US11780830B2, “Triazolone derivatives or salts thereof and pharmaceutical compositions comprising the same” (YUHAN CORPORATION, priority 2018, dated 2023).

Columns and labels:
Format in all cases: biochemical
[1] = target: T1, recombinant human MAO-A (monoamine oxidase-A) (Homo sapiens, UniProt P21397); experiment: Activity on recombinant human MAO-A, method similar to the VAP-1 assay; conditions: substrate 0.5 mM tyramine; read-out: Inhibitory Activity (IC50, nM) MAO-A
T1 construct: purchased Sigma-Aldrich
T1 sequence (P21397 1-527): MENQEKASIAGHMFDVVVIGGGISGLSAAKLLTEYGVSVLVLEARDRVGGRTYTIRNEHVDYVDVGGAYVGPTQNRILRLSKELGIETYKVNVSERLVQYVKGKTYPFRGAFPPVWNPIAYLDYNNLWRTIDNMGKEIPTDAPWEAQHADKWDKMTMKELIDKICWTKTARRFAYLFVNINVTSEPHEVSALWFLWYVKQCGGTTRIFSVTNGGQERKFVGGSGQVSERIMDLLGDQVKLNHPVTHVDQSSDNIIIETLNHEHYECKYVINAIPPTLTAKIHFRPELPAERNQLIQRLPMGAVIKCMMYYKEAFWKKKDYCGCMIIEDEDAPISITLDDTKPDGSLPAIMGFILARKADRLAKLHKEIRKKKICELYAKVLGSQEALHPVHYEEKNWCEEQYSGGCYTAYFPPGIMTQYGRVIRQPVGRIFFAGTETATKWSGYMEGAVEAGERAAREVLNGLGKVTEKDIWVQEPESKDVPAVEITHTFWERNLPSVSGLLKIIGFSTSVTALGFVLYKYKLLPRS
In short: (§1)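 Enzyme in pH 7.4 phosphate buffer; 30 min, 37° C with compound (DMSO <1%); start with 200 uM Amplex Red + 1 U/mL HRP + tyramine 0.5 mM (MAO-A) or benzylamine 1 mM (MAO-B); kinetic read ex 544/em 590, 1-2 h; % rate decrease vs DMSO control → IC50, 4-parameter fit.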

recombinant human VAP-1 = target: T2, recombinant human VAP-1 (Homo sapiens, UniProt Q16853); experiment: Activity on recombinant human VAP-1, HRP-coupled Amplex Red hydrogen peroxide assay; conditions: substrate 1 mM benzylamine; compound incubated with enzyme at 37° C. for 30 minutes; pH 7.4; read-out: Inhibitory Activity (IC50, nM) human VAP-1
T2 construct: purchased R&D systems
T2 sequence (Q16853 1-763): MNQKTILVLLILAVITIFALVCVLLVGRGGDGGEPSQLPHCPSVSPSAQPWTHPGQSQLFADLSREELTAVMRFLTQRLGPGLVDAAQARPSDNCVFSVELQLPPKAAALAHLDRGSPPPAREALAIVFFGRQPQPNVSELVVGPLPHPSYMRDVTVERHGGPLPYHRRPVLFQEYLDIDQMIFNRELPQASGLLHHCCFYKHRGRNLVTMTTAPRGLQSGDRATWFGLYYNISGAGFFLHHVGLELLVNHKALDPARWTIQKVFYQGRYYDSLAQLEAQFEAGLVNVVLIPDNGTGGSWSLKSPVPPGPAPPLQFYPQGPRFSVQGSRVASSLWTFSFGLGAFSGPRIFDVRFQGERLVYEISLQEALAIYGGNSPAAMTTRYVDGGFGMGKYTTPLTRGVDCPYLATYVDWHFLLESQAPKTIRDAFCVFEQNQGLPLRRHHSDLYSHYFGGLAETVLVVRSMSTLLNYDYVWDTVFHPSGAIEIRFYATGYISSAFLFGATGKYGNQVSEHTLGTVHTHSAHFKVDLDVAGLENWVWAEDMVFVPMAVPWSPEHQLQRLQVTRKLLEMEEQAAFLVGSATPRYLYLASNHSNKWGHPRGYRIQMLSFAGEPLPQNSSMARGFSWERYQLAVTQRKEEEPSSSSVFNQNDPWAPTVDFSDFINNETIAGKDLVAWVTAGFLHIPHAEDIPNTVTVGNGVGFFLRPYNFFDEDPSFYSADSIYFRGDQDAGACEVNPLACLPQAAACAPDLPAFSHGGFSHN
In short: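 Enzyme in 50 mM sodium phosphate (pH 7.4) is exposed to test compound for 30 min at 37 °C. Benzylamine (1 mM) with HRP and Amplex Red then starts the reaction, and the fluorescence rate, relative to a DMSO-only control, gives IC50.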

[2] = target: T3, recombinant human DAO (diamine oxidase) (Homo sapiens, UniProt P19801); experiment: Activity on recombinant human DAO, method similar to the VAP-1 assay; conditions: substrate 1 mM putrescine; read-out: Inhibitory Activity (IC50, nM) DAO
T3 construct: purchased R&D systems
T3 sequence (P19801 20-751): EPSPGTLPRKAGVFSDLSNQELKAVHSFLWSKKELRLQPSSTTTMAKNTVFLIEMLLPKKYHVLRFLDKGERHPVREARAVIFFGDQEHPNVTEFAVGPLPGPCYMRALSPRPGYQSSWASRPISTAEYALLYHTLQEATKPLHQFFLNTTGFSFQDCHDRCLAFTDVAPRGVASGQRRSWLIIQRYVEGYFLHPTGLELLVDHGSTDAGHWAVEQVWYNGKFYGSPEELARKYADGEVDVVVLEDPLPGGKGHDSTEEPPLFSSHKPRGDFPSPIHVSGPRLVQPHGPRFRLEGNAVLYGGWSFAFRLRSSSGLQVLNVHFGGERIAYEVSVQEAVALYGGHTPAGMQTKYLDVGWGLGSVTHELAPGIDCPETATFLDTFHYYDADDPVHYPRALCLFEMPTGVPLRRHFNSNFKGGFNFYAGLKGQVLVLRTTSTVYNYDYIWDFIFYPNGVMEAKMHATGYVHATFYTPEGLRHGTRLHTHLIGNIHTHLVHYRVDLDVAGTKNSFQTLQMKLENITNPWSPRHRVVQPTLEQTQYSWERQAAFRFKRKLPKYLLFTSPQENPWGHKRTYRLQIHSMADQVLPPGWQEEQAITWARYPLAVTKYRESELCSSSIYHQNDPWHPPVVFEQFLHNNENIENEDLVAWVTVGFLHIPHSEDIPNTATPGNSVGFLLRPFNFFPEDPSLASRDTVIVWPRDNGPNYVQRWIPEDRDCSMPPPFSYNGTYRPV
In short: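 Inhibition of recombinant human diamine oxidase (DAO, R&D systems) was assessed by the same approach as the VAP-1 assay, using 1 mM putrescine as substrate. Hydrogen peroxide formed was detected through an HRP-coupled Amplex Red reaction yielding fluorescent resorufin, read at 544 nm excitation and 590 nm emission. IC50 values came from four-parameter logistic fitting in GraphPad Prism.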

[3] = target: T4, recombinant human MAO-B (monoamine oxidase-B) (Homo sapiens, UniProt P27338); experiment: Activity on recombinant human MAO-B, method similar to the VAP-1 assay; conditions: substrate 1 mM benzylamine; read-out: Inhibitory Activity (IC50, nM) MAO-B
T4 construct: purchased Sigma-Aldrich
T4 sequence (P27338 1-520): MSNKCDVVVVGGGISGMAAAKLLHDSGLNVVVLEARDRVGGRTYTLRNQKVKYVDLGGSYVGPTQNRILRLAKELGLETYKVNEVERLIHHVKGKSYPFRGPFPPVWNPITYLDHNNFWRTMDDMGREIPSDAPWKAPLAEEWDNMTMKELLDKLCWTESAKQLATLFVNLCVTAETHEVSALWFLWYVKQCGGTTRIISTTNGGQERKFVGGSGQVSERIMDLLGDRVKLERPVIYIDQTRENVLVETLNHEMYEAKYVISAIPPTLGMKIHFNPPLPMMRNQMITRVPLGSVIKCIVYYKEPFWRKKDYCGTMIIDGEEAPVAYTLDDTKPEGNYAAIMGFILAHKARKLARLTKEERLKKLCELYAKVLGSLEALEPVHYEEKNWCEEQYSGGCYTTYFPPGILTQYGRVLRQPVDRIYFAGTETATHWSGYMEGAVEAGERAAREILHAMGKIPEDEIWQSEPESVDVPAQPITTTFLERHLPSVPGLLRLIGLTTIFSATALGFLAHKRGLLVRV
In short: as §1

SMILES | IC50 [1] [nM] | IC50 (recombinant human VAP-1) [nM] | IC50 [2] [nM] | IC50 [3] [nM]
NC/C(=C\F)Cn1ncn(Cc2ccc(-c3cnc4c(c3)CCC(=O)N4)s2)c1=O [Example 148, 6-[5-({1-[(2E)-2-(aminomethyl)-3-fluoroprop-2-en-1-yl]-5-oxo-1,5-dihydro-4H-1,2,4-triazol-4-yl}methyl)thiophen-2-yl]-3,4-dihydro-1,8-naphthyridin-2(1H)-one] | > 100000 | 0.4 | 420 | 24000
NC/C(=C\F)Cn1ncn(Cc2ccc(-c3cnc4c(c3)COC(=O)N4)s2)c1=O [Example 149, 6-[5-({1-[(2E)-2-(aminomethyl)-3-fluoroprop-2-en-1-yl]-5-oxo-1,5-dihydro-4H-1,2,4-triazol-4-yl}methyl)thiophen-2-yl]-1,4-dihydro-2H-pyrido[2,3-d][1,3]oxazin-2-one] | > 100000 | 0.4 | 470 | 4500
CN1C(=O)COc2ncc(-c3ccc(Cn4cnn(C/C(=C/F)CN)c4=O)s3)cc21 [Example 150, 7-[5-({1-[(2E)-2-(aminomethyl)-3-fluoroprop-2-en-1-yl]-5-oxo-1,5-dihydro-4H-1,2,4-triazol-4-yl}methyl)thiophen-2-yl]-1-methyl-1H-pyrido[2,3-b][1,4]oxazin-2(3H)-one] | > 100000 | 0.8 | 190 | 26000
NC/C(=C\F)Cn1ncn(Cc2ccc(-c3cnn(Cc4ccccc4)c3)s2)c1=O [Example 151, 2-[(2E)-2-(aminomethyl)-3-fluoroprop-2-en-1-yl]-4-{[5-(1-benzyl-1H-pyrazol-4-yl)thiophen-2-yl]methyl}-2,4-dihydro-3H-1,2,4-triazol-3-one] | 59000 | 2.7 | 790 | 1500
NC/C(=C\F)Cn1ncn(Cc2ccc(-c3cn[nH]c3)s2)c1=O [Example 152, 2-[(2E)-2-(aminomethyl)-3-fluoroprop-2-en-1-yl]-4-{[5-(1H-pyrazol-4-yl)thiophen-2-yl]methyl}-2,4-dihydro-3H-1,2,4-triazol-3-one] | 13000 | 4.9 | 4400 | 3500
CCn1cc(-c2ccc(Cn3cnn(C/C(=C/F)CN)c3=O)s2)cn1 [Example 153, 2-[(2E)-2-(aminomethyl)-3-fluoroprop-2-en-1-yl]-4-{[5-(1-ethyl-1H-pyrazol-4-yl)thiophen-2-yl]methyl}-2,4-dihydro-3H-1,2,4-triazol-3-one] | > 100000 | 1.3 | 4700 | 1900
Cn1c(-c2ccc(Cn3cnn(C/C(=C/F)CN)c3=O)s2)cnc1Cl [Example 154, 2-[(2E)-2-(aminomethyl)-3-fluoroprop-2-en-1-yl]-4-{[5-(2-chloro-1-methyl-1H-imidazol-5-yl)thiophen-2-yl]methyl}-2,4-dihydro-3H-1,2,4-triazol-3-one] | > 100000 | 4.4 | 690 | 1400
CC(=O)c1ccc(-c2ccc(Cn3cnn(C/C(=C/F)CN)c3=O)s2)s1 [Example 155, 4-[(5′-acetyl-2,2′-bithiophen-5-yl)methyl]-2-[(2E)-2-(aminomethyl)-3-fluoroprop-2-en-1-yl]-2,4-dihydro-3H-1,2,4-triazol-3-one] | > 100000 | 0.4 | 950 | 470
Cn1nccc1-c1ccc(Cn2cnn(C/C(=C/F)CN)c2=O)s1 [Example 156, 2-[(2E)-2-(aminomethyl)-3-fluoroprop-2-en-1-yl]-4-{[5-(1-methyl-1H-pyrazol-5-yl)thiophen-2-yl]methyl}-2,4-dihydro-3H-1,2,4-triazol-3-one] | > 100000 | 4.2 | 1300 | 28
Cc1nn(C)cc1-c1ccc(Cn2cnn(C/C(=C/F)CN)c2=O)s1 [Example 157, 2-[(2E)-2-(aminomethyl)-3-fluoroprop-2-en-1-yl]-4-{[5-(1,3-dimethyl-1H-pyrazol-4-yl)thiophen-2-yl]methyl}-2,4-dihydro-3H-1,2,4-triazol-3-one] | > 100000 | 2.6 | 1700 | 330
Cc1cc(-c2ccc(Cn3cnn(C/C(=C/F)CN)c3=O)s2)n(C)n1 [Example 158, 2-[(2E)-2-(aminomethyl)-3-fluoroprop-2-en-1-yl]-4-{[5-(1,3-dimethyl-1H-pyrazol-5-yl)thiophen-2-yl]methyl}-2,4-dihydro-3H-1,2,4-triazol-3-one] | > 100000 | 1.9 | 340 | 430
CN1CCC(n2cc(-c3ccc(Cn4cnn(C/C(=C/F)CN)c4=O)s3)cn2)CC1 [Example 159, 2-[(2E)-2-(aminomethyl)-3-fluoroprop-2-en-1-yl]-4-({5-[1-(1-methylpiperidin-4-yl)-1H-pyrazol-4-yl]thiophen-2-yl}methyl)-2,4-dihydro-3H-1,2,4-triazol-3-one] | > 100000 | 4.3 | 1200 | > 100000
